The test system of data set [1] is Caco-2/HT29-MTX monolayers. Briefly: Trans-monolayer transport. The note with it: Caco2-HT29/MTX cell model, AP to BL, 4 h. The data set is classed as in vitro ADME. As for the experimental part:
(§1) Caco-2, Caco-2/HT29-MTX (7/3), and Caco-2/HT29-MTX/Raji cell models were established for the trans-monolayer transport study, as previously described. The assay was carried out from the AP side (pH 6.5) to the BL side (pH 7.4) using HBSS-HEPES buffer. […] At 0, 0.5, 1, 2, and 4 h, a certain amount of sample was taken from the basolateral compartment, and the same volume of HBSS-HEPES buffer was added.
A general note: Caco-2 monolayers are a common model of the intestinal barrier.

In another data set the test system is Caco-2 monolayers. Briefly: Trans-monolayer transport. The data set is classed as in vitro ADME. The conditions noted are these: Caco-2 cell model, AP to BL, 4 h. As for the experimental part: as §1
In data set [2] the test system is Caco-2/HT29-MTX/Raji monolayers. Briefly: Trans-monolayer transport. The note with it: Caco2-HT29/MTX-Raji cell model, AP to BL, 4 h. It counts as in vitro ADME. How it is done:
as §1

Data set [3] in a line: In vitro release behavior by dialysis in SGF (pH 1.2) and PBS (pH 7.4). It counts as physicochemical. As for the experimental part:
The release behavior of αCT and Res in vitro was investigated through dialysis. […] The release medium was SGJ (pH 1.2) containing 2% sodium dodecyl sulfate (w/v) and 30 mL PBS (pH 7.4). The release behavior of drugs from JNP was studied under the conditions of 37 ± 0.5 °C and a rotating speed of 100 rpm. At fixed time points (0, 0.25, 0.5, 0.75, 1.0, 1.5, and 2.0 h in SGJ; 0, 0.25, 0.5, 1.0, 2,0, 4.0, 6.0, 8.0, 10.0, 12.0, and 24.0 h in PBS), 1 mL of release medium was removed, and a blank release medium with the same volume and temperature was supplemented. The samples were filtered through a 0.22-μm microporous membrane, and the supernatant was obtained after high-speed centrifugation. The αCT and Res content were determined using HPLC. The cumulative release percentage was calculated, and a release curve was obtained. The formula for cumulative drug release is shown in the following equation, where Ct is the content of two drugs at each sampling point, V0 is the volume of the release medium, V is the sampling volume, and M0 is the initial dosage:3 Cumulative release%=Ct×V0+∑n=1t-1C×V/M0×100%

The nature of data set [4]: Lymphatic transport in mesenteric lymph-cannulated rats. It counts as in vivo, SD rats. As for the experimental part: The methods of mesenteric lymphatic intubation were based on previous studies. Briefly, SD rats (300–350 g) were given 2 mL peanut oil via gavage 1 h before administration to induce lymphoid production. One hour later, the animals were anesthetized via intraperitoneal injection of 50 mg·kg^−1 pentobarbital sodium. The rats were placed in the supine position on the ventral side and their limbs were fixed. A midline abdominal incision (approximately 4 cm long) was made at 2/3 of the line connecting the xiphoid and pubic symphysis. […] The trunk of the mesenteric lymphatic vessels (approximately 1 cm) was then separated. A 4-mm PE-25 pipe with a PE-50 hose was connected, the joint of each pipe was fully fixed, and the pipe was filled with 1% EDTA-2Na. […] A small incision was made in the mesenteric lymphatic vessel, and the PE-25 tube end was intubated. When the lymphatic fluid completely filled the tube and drained smoothly, the intubation site was fixed. After resuscitation, the rats were allowed to drink 5% glucose solution freely and recover overnight.

A short description of the next data set: in vivo. Details: species or system SD rats. As for the experimental part: SD rats fasted but drank water freely for 24 h before administration. The dosage of JNP group was 50 µg·kg ^−1 (calculated using αCT), and the other groups were converted according to the ratio of their drug loading to αCT. After intragastric administration, blood samples were collected at 0.25, 0.5, 1, 4, 8, 12, and 24 h. […] PKSolver software (V2.0, China Pharmaceutical University, China) was used to process the data, compare the blood PK parameters of each group after administration, and generate the drug concentration–time curve.

For data set [5] the following is noted: humans and animals; cited from earlier work.
For the next data set, the target named is T1, trypsin (Sus scrofa, UniProt P00761).
T1 construct: purchased Gibco Invitrogen Co. (Carlsbad, USA)
Briefly: Stability in SIF containing 0.2% trypsin (residual drug content). The note with it: SIF with 0.2% trypsin, 37 °C, first hour. The data set is classed as in vitro ADME. As for the experimental part: The effect of trypsin on the stability of αCT/Res-JNPs was also evaluated. αCT/Res-JNPs were centrifuged at 20,000 rpm at 4 °C for 30 min, and then resuspended in SIF. The control group was treated with αCT solution and Res solution. SIFs and trypsin (0.2%, w/v) were mixed at 37 °C for 2 h. At predetermined time points (15, 30, 60, and 120 min), HCl solution (0.1 M) was added to terminate the trypsin activity. Subsequently, dichloromethane was added to dissolve the organic phase contained in the JNP solution. The pH of the solution was then adjusted to 4.0 using hydrochloric acid to dissolve the internal aqueous phase of the JNP. Subsequently, samples were collected, and the contents of residual αCT and Res in the JNP samples were analyzed via HPLC.

The conditions of data set [6]: SPIP, n = 3. How it is done:
SPIP was performed to determine the absorption and enterocytic uptake of the nanoparticles. The abdominal cavity of SD rats were opened along the midline of the abdomen to expose the intestinal tissue. The jejunum, ileum, duodenum, and colon segments were measured, and incisions were made at both ends of these segments. Both ends of the incision were intubated and fixed using ligation. The wounds were covered with an absorbent cotton soaked in normal saline and maintained at 37 °C. […] After 60 min, the jejunum, ileum, duodenum, and colon were dehydrated to create frozen Sects. (10 μm). These sections were observed using CLSM, and the fluorescence intensity of each section was quantified.

Data set [7] has as its system Caco-2 cells. Kind of data set: Mechanism of cell uptake with specific endocytosis inhibitors (flow cytometry). The data set is classed as cell-based. The conditions noted are these: inhibitor 0.5 h, then FITC-αCT-JNP or FITC-αCT/Res-JNP 2 h; uptake without inhibitor = 100%. As for the experimental part:
The mechanism of cell uptake was also investigated. Caco-2 cells in the logarithmic growth phase were seeded in 6-well plates at 3 × 10^5 cells/well and incubated for 48 h. Chlorpromazine (10 μg/mL), genistein (54 μg/mL), amiloride (12 μg/mL), and nocodazole (300 μg/mL) were added to the individual wells as inhibitors and were incubated for 0.5 h. FITC-αCT-JNP and FITC-αCT/Res-JNP were then added and the wells were incubated for another 2 h. The cells were then collected using trypsin and centrifuged at 1000 rpm for 5 min. Cells without any inhibitors were used as controls. Fluorescence intensity was detected using flow cytometry (FACSJazz, BD, USA).
In general terms: A flow cytometer gives signals particle by particle.

The next data set has as its system animal models. The note with it: cited from earlier work.
The subject of data set [8] is Caco-2 cells. Kind of data set: Cellular uptake of FITC-αCT observed by CLSM. It counts as cell-based. The note with it: 6 h incubation, 1:20 dilution. As for the experimental part: (§2) Cell culture was carried out according to previously described procedures. HT-29/MTX and Caco-2 cells were seeded into 24-well plates at a density of 1 × 10^5 cells/well and 6 × 10^4 cells/well, respectively. After the cells adhered onto each well, the culture medium was discarded, and three types of samples (FITC-αCT, FITC-αCT-JNP, or FITC-αCT/Res-JNP) at 1:20 dilutions were added. After 6 h, the liquid in the wells was discarded, and the cells were washed with PBS. Each well was fixed with 4% (v/v) paraformaldehyde (0.5 mL) for 20 min, and rinsed with PBS. The cells were then incubated with 0.1% Triton X-100 for 10 min to permeabilize the cell membrane, and then incubated with DAPI for 10 min. After sealing, it was observed using CLSM.

A further data set concerns HT29/MTX cells. Kind of data set: Cellular uptake of FITC-αCT observed by CLSM. The data set is classed as cell-based. The note with it: 6 h incubation, 1:20 dilution. As for the experimental part:
as §2

Where [9] appears, read: PBS pH 7.4, time point not stated.
Setting [10] is: Sprague-Dawley, rat, in vivo, po.
Where [11] appears, read: rats, intragastric, 50 µg·kg^−1 as αCT, plasma FITC-αCT, n = 5.

These results are taken from article PMC8348996, “pH-sensitive dual drug loaded janus nanoparticles by oral delivery for multimodal analgesia” (Journal of Nanobiotechnology, 2021).

Where two headings read alike, the source gives them in different places.

T1 sequence (P00761 9-231): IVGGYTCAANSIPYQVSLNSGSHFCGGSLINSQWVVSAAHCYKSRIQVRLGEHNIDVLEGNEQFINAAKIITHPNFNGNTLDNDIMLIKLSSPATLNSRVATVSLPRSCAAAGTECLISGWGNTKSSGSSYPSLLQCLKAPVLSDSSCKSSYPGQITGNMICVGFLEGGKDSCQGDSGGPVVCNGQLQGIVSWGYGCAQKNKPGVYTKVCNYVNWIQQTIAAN

For orientation: AUC(0-t) means exposure summed from dosing to a finite time, without extrapolation to infinity. A low value points to low exposure. A word on the Cmax: it is the maximum level reached in the sampled fluid or tissue. Usually MRT last stands for a mean duration of stay, worked out from the concentration-time curve. Usually half-life stands for the time in which the quantity being followed falls by half. Higher therefore signals slow loss. Usually Tmax stands for the time from dosing to the highest level. `Oc1ccc(/C=C/c2cc(O)cc(O)c2)cc1` [Res, Resveratrol]: the cumulative transport result in [1] is given as “approximately 6%”. In addition, the “cumulative transport of Res” value with Caco-2 monolayers is recorded as “approximately 14%”. In data set [2], the cumulative transport entry is “approximately 14%”. For the same molecule, the “release of Res in PBS” value in data set [3] (setting [9]) came to 86.71%. The “release rate of Res” value in [3] (SGF pH 1.2 with 2% sodium dodecyl sulfate, within 1 h) turned out to be 93.76%. Further, the “time after which Res was no longer detected in lymph” value in data set [4] stood at 4 h. Also, in “in vivo” (setting [10]), the AUC(0-t) was found to be 84.6 ± 3.8 ng·h/mL, the highest concentration (Cmax) was found to be 92.1 ± 8 ng/mL, the MRT last worked out at 1.56 ± 0.52 h and the half-life is 1.09 ± 0.07 h. Also, in “in vivo” (Sprague-Dawley, rat, in vivo, po, time of peak concentration of Res, rats, intragastric), the Tmax was 0.167 h. Moreover, the “AUMCt of Res” value in the data set “in vivo” (rats, intragastric, plasma Res, n = 5) is reported as 118.18 ± 19.08 ng/ml*h^2. In addition, the oral bioavailability entry in data set [5] was “almost zero”. Besides, at trypsin, the “residual amount of Res” value is 47.23%. Moreover, in data set [6] (colon), the “Ka of Res” value is 1.01 ± 0.26 × 10^–2 min^−1 and the “Peff of Res” value is 1.60 ± 0.44 × 10^–3 cm·min^−1. Besides, in [6] (duodenum), the “Ka of Res” value is listed as 0.99 ± 0.11 × 10^–2 min^−1 and the “Peff of Res” value was 1.58 ± 0.18 × 10^–3 cm·min^−1. Besides, in [6] (ileum), the “Ka of Res” value was 1.91 ± 0.66 × 10^–2 min^−1 and the “Peff of Res” value is 3.26 ± 1.26 × 10^–3 cm·min^−1. In addition, in [6] (jejunum), the “Ka of Res” value was 1.55 ± 0.26 × 10^–2 min^−1 and the “Peff of Res” value is given as 2.57 ± 0.46 × 10^–3 cm·min^−1.
Turning to `O=c1c(-c2ccc(O)cc2)coc2cc(O)cc(O)c12` [genistein], the “effect of endocytosis inhibitor on uptake rate of JNP by Caco-2 cells” value (“effect of endocytosis inhibitor” below) in the data set on Caco-2 cells [7] is on record as “did not significantly inhibit the cellular uptake of JNP”.
On to α-Cobrotoxin [αCT], for which, in data set [3] (setting [9]), the “release of αCT in PBS” value was 67.89%. The “cumulative release of αCT” value in data set [3] (SGF pH 1.2, 2 h, 37 °C) is recorded as “approximately 40.17%”. The “time after which αCT was no longer detected in lymph” value in data set [4] stood at 6 h. In addition, the “effect on pain sensitivity” value with animal models (high dose 100 μg·kg^−1, intraperitoneal injection) is listed as “significantly enhance pain sensitivity”. For the same molecule, the “effect on pain threshold and action ability” value in the data set on animal models (low dose, animal models) is “improve the pain threshold and action ability”. Moreover, in “in vivo” (rats, intragastric), the “t1/2 of αCT” value was found to be 0.17 ± 0.03 h and the “time of peak concentration of αCT” value is given as “about 30 min”. For the same molecule, in “in vivo” (setting [11]), the “AUCt of αCT” value turned out to be 67.65 ± 17.91 ng·h/mL, the “AUMCt of αCT” value is 112.44 ± 12.97 ng/ml*h^2, the “Cmax of αCT” value was 26.85 ± 3.00 ng/mL and the “Tmax of αCT” value is given as 0.5 h. The “t1/2β of αCT” value in “in vivo” (setting [11]) was 2.69 ± 0.36 h. The “residual amount of αCT” value with trypsin amounted to 25.60%. For the same molecule, in data set [6] (colon), the “Ka of αCT” value is recorded as 0.85 ± 0.14 × 10^–2 min^−1 and the “Peff of αCT” value is reported as 1.34 ± 0.23 × 10^–3 cm·min^−1. Moreover, in data set [6] (duodenum), the “Ka of αCT” value is recorded as 0.81 ± 0.11 × 10^–2 min^−1 and the “Peff of αCT” value is given as 1.27 ± 0.19 × 10^–3 cm·min^−1. In data set [6] (ileum), the “Ka of αCT” value was 0.91 ± 0.03 × 10^–2 min^−1 and the “Peff of αCT” value was 1.44 ± 0.05 × 10^–3 cm·min^−1. Also, in [6] (jejunum), the “Ka of αCT” value is reported as 0.98 ± 0.05 × 10^–2 min^−1 and the “Peff of αCT” value is 1.56 ± 0.10 × 10^–3 cm·min^−1.
In the case of `N=C(N)NC(=O)c1nc(Cl)c(N)nc1N` [amiloride], in the data set on Caco-2 cells [7], the “effect of endocytosis inhibitor” value is on record as “significantly reduced the uptake rate of JNP”.
The same measure, in the same setting: in the case of `CN(C)CCCN1c2ccccc2Sc2ccc(Cl)cc21` [chlorpromazine] it was “significantly reduced the uptake rate of JNP”.
Regarding “FITC-αCT: αCT labeled with fluorescein isothiocyanate (FITC)”, the cumulative transport result in data set [1] and in data set [2] was “approximately 4%” throughout. The “cumulative transport of FITC-αCT” value in the data set on Caco-2 monolayers is “approximately 3%”. The “cellular uptake of FITC-αCT (green fluorescence, CLSM)” value with Caco-2 cells [8] and in the data set on HT29/MTX cells was “no obvious green fluorescence” in each case.
On to `COC(=O)Nc1nc2ccc(C(=O)c3cccs3)cc2[nH]1` [nocodazole], for which the “effect of endocytosis inhibitor” value with Caco-2 cells [7] is “did not significantly inhibit the cellular uptake of JNP”.
